Here are results for nine compounds from PubChem BioAssay (NCI).

Some test systems named below: SF-539 CNS; HCC-2998 colon; UACC-257 melanoma; U251 CNS; SN12C renal; SNB-19 CNS; PC-3 prostate; SK-MEL-5 melanoma; EKVX NSCLC; DU-145 prostate.
Common to all, as to assay: NCI-60 cell line screen, 48 h

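Cultured in 96-well plates, cells were exposed to test compound for 48 hours across five concentrations. GI50 = concentration required for 50% inhibition of growth. TGI marks complete inhibition of growth.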

As to `NS(=O)(=O)c1ccc(N=Nc2c(O)c(C(=O)O)cc3ccccc23)cc1`, the TGI in the assay with SF-539 CNS is above 100 µM; in the assay with HCC-2998 colon, above 100 µM; in the assay with UACC-257 melanoma, above 100 µM; in the assay with U251 CNS it was above 100 µM; with SN12C renal, above 100 µM; in the assay with SNB-19 CNS it was above 90.3 µM. Moreover, the TGI in the assay with PC-3 prostate, in the assay on SK-MEL-5 melanoma, with EKVX NSCLC and in the assay with DU-145 prostate was above 100 µM in each case.
As for `COC(=O)c1c2c(c(C)[n+]([O-])c1C)C(=O)C=C(NCc1ccc(F)cc1)C2=O`, the GI50 was 0.641 µM in the assay on SF-539 CNS; 0.442 µM in the assay with HCC-2998 colon; 0.258 µM with UACC-257 melanoma; 0.999 µM in the assay with U251 CNS; 0.345 µM with SN12C renal; 1.38 µM with SNB-19 CNS. The GI50 in the assay with PC-3 prostate is 0.317 µM; with SK-MEL-5 melanoma it was 0.193 µM; with EKVX NSCLC, 0.963 µM; in the assay on DU-145 prostate, 1.15 µM. In addition, the TGI with SF-539 CNS is 1.87 µM; with HCC-2998 colon, 1.77 µM; with UACC-257 melanoma it was 0.822 µM; with U251 CNS, 2.62 µM; in the assay on SN12C renal, 1.41 µM; in the assay on SNB-19 CNS it was 2.83 µM. In addition, the TGI amounted to 3.68 µM with PC-3 prostate, 0.405 µM in the assay with SK-MEL-5 melanoma, 2.23 µM with EKVX NSCLC and 2.4 µM with DU-145 prostate.
Turning to `CCN(CC)CCNc1nc(N)c(C#N)c(C#N)c1C#N`, the TGI in the assay with SF-539 CNS, with HCC-2998 colon, in the assay with UACC-257 melanoma, in the assay with U251 CNS, in the assay with SN12C renal and in the assay with SNB-19 CNS was above 10 µM each time. The TGI with PC-3 prostate, in the assay on SK-MEL-5 melanoma, with EKVX NSCLC and in the assay with DU-145 prostate was above 10 µM throughout.
For the compound `O=C(NC[C@H](O)CN1CCc2ccccc2C1)c1cc(NC2COC2)ncn1`, the GI50 was 5.09 µM with SF-539 CNS; 15.4 µM with HCC-2998 colon; 19.8 µM in the assay on UACC-257 melanoma; 13 µM in the assay on U251 CNS; 18.5 µM in the assay with SN12C renal; 11.9 µM in the assay with SNB-19 CNS. The GI50 in the assay with PC-3 prostate was 5.92 µM; in the assay with SK-MEL-5 melanoma, 11.4 µM; with EKVX NSCLC it was 24.8 µM; in the assay with DU-145 prostate, 18.3 µM. Also, the TGI in the assay with SF-539 CNS was 45.6 µM; with HCC-2998 colon, 29.8 µM; in the assay with UACC-257 melanoma, 90.4 µM; in the assay on U251 CNS it was above 100 µM; in the assay on SN12C renal it was above 100 µM; in the assay on SNB-19 CNS, 98 µM. The TGI was 96.3 µM in the assay with PC-3 prostate, 24.5 µM in the assay on SK-MEL-5 melanoma, above 100 µM with EKVX NSCLC and above 100 µM in the assay with DU-145 prostate.
As for `O=C(c1ccco1)c1c(C(F)(F)F)nc2ccc(Cl)cc2[n+]1[O-]`, the GI50 with SF-539 CNS was above 100 µM; in the assay on HCC-2998 colon, 21.8 µM; with UACC-257 melanoma, above 100 µM; with U251 CNS, above 100 µM; in the assay on SN12C renal it was above 100 µM; in the assay on SNB-19 CNS it was above 100 µM. In addition, the GI50 is above 100 µM in the assay on PC-3 prostate, 17.5 µM with SK-MEL-5 melanoma, 56.8 µM in the assay with EKVX NSCLC and above 100 µM in the assay on DU-145 prostate. Moreover, the TGI in the assay on SF-539 CNS was above 100 µM; with HCC-2998 colon, 46.1 µM; in the assay with UACC-257 melanoma, above 100 µM; in the assay on U251 CNS, above 100 µM; in the assay on SN12C renal, above 100 µM; with SNB-19 CNS, above 100 µM. For the same compound, the TGI was above 100 µM with PC-3 prostate, 31.6 µM in the assay on SK-MEL-5 melanoma, above 100 µM with EKVX NSCLC and above 100 µM in the assay on DU-145 prostate.
For `O=c1oc2ccc(-c3ccc(F)cc3F)cc2c(=O)n1-c1cccc(C(F)(F)F)c1`, the GI50 was 1.41 µM in the assay with SF-539 CNS; 2.64 µM with HCC-2998 colon; 0.274 µM with UACC-257 melanoma; 1.73 µM in the assay on U251 CNS; 1 µM in the assay with SN12C renal; 1.83 µM in the assay with SNB-19 CNS. The GI50 in the assay on PC-3 prostate is 2.04 µM; in the assay with SK-MEL-5 melanoma, 0.44 µM; in the assay on EKVX NSCLC it was 2.16 µM; with DU-145 prostate it was 2.79 µM. For the same compound, the TGI is 6.95 µM with SF-539 CNS; 7.94 µM in the assay on HCC-2998 colon; 3.31 µM with UACC-257 melanoma; 12.7 µM in the assay on U251 CNS; 10.4 µM in the assay with SN12C renal; above 100 µM in the assay with SNB-19 CNS. Further, the TGI is 12.4 µM with PC-3 prostate, 1.71 µM with SK-MEL-5 melanoma, above 100 µM in the assay on EKVX NSCLC and 16.4 µM in the assay with DU-145 prostate.
With `CC(=O)Nc1ccc(-c2csc(Nc3cccc(-c4csc(C)n4)c3)n2)cc1`, the GI50 in the assay on SF-539 CNS was 1.1 µM; in the assay on HCC-2998 colon, 0.00657 µM; with UACC-257 melanoma, 4.63 µM; in the assay with U251 CNS it was 1.13 µM; with SN12C renal it was 1.36 µM; in the assay on SNB-19 CNS, 1.6 µM. The GI50 in the assay with PC-3 prostate is 1.67 µM; in the assay with SK-MEL-5 melanoma it was 0.26 µM; in the assay on EKVX NSCLC, 4.99 µM; in the assay on DU-145 prostate, 3.85 µM. Besides, the TGI is 6.83 µM in the assay on SF-539 CNS; 8.98 µM in the assay with HCC-2998 colon; 21.5 µM in the assay with UACC-257 melanoma; 9.69 µM in the assay on U251 CNS; 6.78 µM in the assay on SN12C renal; above 50 µM in the assay with SNB-19 CNS. Also, the TGI with PC-3 prostate was above 19.9 µM; with SK-MEL-5 melanoma, 8.62 µM; with EKVX NSCLC, 22.2 µM; with DU-145 prostate it was 22.7 µM.
For `S=c1[nH]c(=S)c2cc3ccccc3nc2[nH]1`, the GI50 with SF-539 CNS was above 100 µM; in the assay on HCC-2998 colon, 92.3 µM; in the assay on UACC-257 melanoma, above 100 µM; in the assay on U251 CNS it was 5.98 µM; in the assay with SN12C renal it was above 100 µM; in the assay on SNB-19 CNS, 35.5 µM. Moreover, the GI50 is 4.74 µM in the assay on PC-3 prostate, 30 µM in the assay on SK-MEL-5 melanoma, 31 µM with EKVX NSCLC and above 100 µM with DU-145 prostate. Further, the TGI in the assay on SF-539 CNS is above 100 µM; in the assay on HCC-2998 colon it was above 100 µM; in the assay with UACC-257 melanoma, above 100 µM; in the assay with U251 CNS, 41.6 µM; in the assay with SN12C renal, above 100 µM; in the assay on SNB-19 CNS, above 100 µM. Also, the TGI with PC-3 prostate, in the assay with SK-MEL-5 melanoma, with EKVX NSCLC and in the assay with DU-145 prostate was above 100 µM in each case.
Turning to `CCC[CH2][Sn]([CH2]CCC)([O]C(=O)c1ccc(OC)c(OC)c1OC)[O][Sn]([CH2]CCC)([CH2]CCC)[O]C(=O)c1ccc(OC)c(OC)c1OC`, the GI50 in the assay on SF-539 CNS is 0.36 µM; in the assay with HCC-2998 colon it was 0.341 µM; in the assay on UACC-257 melanoma, 0.217 µM; with U251 CNS it was 0.274 µM; with SN12C renal, 0.443 µM; with SNB-19 CNS, 0.285 µM. Further, the GI50 in the assay on PC-3 prostate was 1.2 µM; in the assay with SK-MEL-5 melanoma it was 0.604 µM; in the assay on EKVX NSCLC it was 1.39 µM; with DU-145 prostate, 1.01 µM. Further, the TGI worked out at 0.94 µM in the assay on SF-539 CNS; 1.5 µM with HCC-2998 colon; 0.549 µM in the assay on UACC-257 melanoma; 1.1 µM with U251 CNS; 1.58 µM in the assay with SN12C renal; 0.635 µM in the assay with SNB-19 CNS. The TGI in the assay with PC-3 prostate was 2.46 µM; with SK-MEL-5 melanoma, 1.81 µM; in the assay with EKVX NSCLC, 2.76 µM; in the assay on DU-145 prostate it was 2.17 µM.
